From US10183021B2, “sGC stimulators” (Ironwood Pharmaceuticals, Inc., priority 2013, dated 2019)
Read-outs that look alike come from different tables or passages of the source.

Target: soluble guanylate cyclase (sGC) (Homo sapiens (Human), UniProt Q02108+Q02153)
Assay: sGC-HEK-cGMP assay with SNP incubation, LC/MS detection (Example 2A)
Type: cell-based
Conditions: HEK293 cells, 10 μM SNP, LC/MS detection; for Emax: 100% = BAY 41-2272 at 10 μM, read-out: HEK assay Emax - unconstrained (%)
Protocol: Human embryonic kidney cells (HEK293), endogenously expressing soluble guanylate cyclase (sGC), were used to evaluate the activity of test compounds. Compounds stimulating the sGC receptor should cause an increase in the intracellular concentration of cGMP. HEK 293 cells were seeded in Dulbecco's Modification of Eagle's Medium supplemented with fetal bovine serum (10% final) and L-glutamine (2 mM final) in a 200 L volume at a density of 1×10^5 cells/well in a poly-D-lysine coated 96 well flat bottom plate and grown overnight at 37° C. Medium was aspirated and cells were washed with 1× Hank's Buffered Saline Salt Solution (200 μL). Cells were then incubated for 15 minutes at 37° C. with 200 μL of a 0.5 mM 3-isobutyl-1-methylxanthine (IBMX) solution. Test article and sodium nitroprusside solutions (x μM concentration for test article solution and 10 μM concentration for SNP solution; wherein x is one of the following concentrations: 30 μM, 10 μM, 3 μM, 1 μM, 0.3 μM, 0.1 μM, 0.03 μM, 0.01 μM, 0.003 μM, 0.001 μM, 0.0003 μM or 0.0001 μM) were then added to the assay mixture (2 μL each) and the resulting mixture incubated at 37° C. for 10 minutes. After the 10 minute incubation, the assay mixture was aspirated and 0.1M HCl (200 μL) was added to the cells. The plate was incubated at 4° C. for 30 minutes in the 0.1M HCl to stop the reaction and lyse the cells. The plates were then centrifuged at 1,200 g for 5 minutes at room temperature. Supernatants were collected and transferred to a new flat bottom 96 well plate for analysis by HPLC-MS. Vehicle controls were carried out using DMSO (1%) solutions. A known sGC stimulator, BAY 41-2272, was used as the positive control. Samples were diluted with an equal volume of 1 M Ammonium Acetate (pH 7) to neutralize samples for better chromatography. A 2× cGMP standard solution was prepared in 0.1 M HCl and then diluted with an equal volume of 1 M Ammonium Acetate, with the following final concentrations in nM: 1024, 512, 256, 128, 64, 32, 16, 8, 4, 2, 1. cGMP concentrations in the test plates were determined from each sample using the LC/MS conditions shown in Table 2 below and the calculated cGMP standard curve. EC50 values were calculated from concentration-response curves generated with GraphPad Prism Software. Data were normalized to a high control using the following equation: 100*(Sample−Low Control)/(High Control−Low Control), where the low control is the average of 6 samples treated with 1% DMSO, and the high control is the average of 8-12 samples treated with 10 uM BAY 41-2272. Data were fit using a non-linear regression, sigmoidal dose response, 3 parameter fits.

[1] = top of curve not fitted to 100%, read-out: HEK assay EC50 - unconstrained

Chain of soluble guanylate cyclase (sGC) (Q02153 whole entry): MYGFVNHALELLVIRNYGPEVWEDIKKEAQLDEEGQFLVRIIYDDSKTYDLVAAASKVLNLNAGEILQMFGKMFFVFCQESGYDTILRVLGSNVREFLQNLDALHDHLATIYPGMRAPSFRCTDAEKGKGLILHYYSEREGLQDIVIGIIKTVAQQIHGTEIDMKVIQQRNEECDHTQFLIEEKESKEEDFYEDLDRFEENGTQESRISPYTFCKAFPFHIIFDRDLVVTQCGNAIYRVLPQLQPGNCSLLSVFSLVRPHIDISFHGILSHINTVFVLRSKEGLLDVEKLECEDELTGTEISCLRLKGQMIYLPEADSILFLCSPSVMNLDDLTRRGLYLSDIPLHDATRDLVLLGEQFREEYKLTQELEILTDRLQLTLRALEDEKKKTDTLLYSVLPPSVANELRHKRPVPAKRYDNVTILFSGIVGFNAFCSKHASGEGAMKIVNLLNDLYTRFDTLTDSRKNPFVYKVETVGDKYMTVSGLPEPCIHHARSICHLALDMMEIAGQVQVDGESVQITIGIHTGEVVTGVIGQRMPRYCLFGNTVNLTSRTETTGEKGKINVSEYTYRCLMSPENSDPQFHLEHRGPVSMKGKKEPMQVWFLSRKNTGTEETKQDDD
Chain of soluble guanylate cyclase (sGC) (Q02108 whole entry): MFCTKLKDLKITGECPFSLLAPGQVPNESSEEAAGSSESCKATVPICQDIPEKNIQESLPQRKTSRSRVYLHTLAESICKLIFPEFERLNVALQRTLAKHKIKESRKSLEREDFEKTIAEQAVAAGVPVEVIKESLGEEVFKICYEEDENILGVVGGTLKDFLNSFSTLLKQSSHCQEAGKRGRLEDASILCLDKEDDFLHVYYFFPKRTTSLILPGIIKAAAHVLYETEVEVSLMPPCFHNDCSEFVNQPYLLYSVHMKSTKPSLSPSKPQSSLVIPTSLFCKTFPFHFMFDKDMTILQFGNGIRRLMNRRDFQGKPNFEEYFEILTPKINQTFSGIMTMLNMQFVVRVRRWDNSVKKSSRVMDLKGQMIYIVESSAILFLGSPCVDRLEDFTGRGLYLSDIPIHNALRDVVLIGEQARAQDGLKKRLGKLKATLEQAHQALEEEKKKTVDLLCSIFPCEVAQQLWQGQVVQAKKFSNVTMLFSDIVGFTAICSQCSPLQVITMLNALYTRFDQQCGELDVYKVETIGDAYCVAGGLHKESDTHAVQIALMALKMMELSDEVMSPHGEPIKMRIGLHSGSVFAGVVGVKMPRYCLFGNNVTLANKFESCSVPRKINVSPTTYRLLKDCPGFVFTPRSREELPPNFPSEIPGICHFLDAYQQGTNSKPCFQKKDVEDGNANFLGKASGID

Emax | EC50 [1] | EC50 (top of curve fitted to 100%, read-out: HEK assay EC50 - constrained) | Structure (SMILES)
80 to 100% | 1000 to 5000 nM | – | O=C(O)COC1CCN(c2nc(-c3cc(-c4ccon4)n(Cc4ccccc4F)n3)ncc2F)CC1 [Compound I-197]
60 to 80% | 5000 to 10000 nM | – | CSCCC(Nc1nc(-c2cc(-c3ccon3)n(Cc3ccccc3F)n2)ncc1F)C(=O)O (stereo not shown) [Compound I-199]
100 to 120% | 100 to 500 nM | – | CCOC(=O)CN(CC1CC1)c1nc(-c2cc(-c3ccon3)n(Cc3ccccc3F)n2)ncc1F [Compound I-201]
80 to 100% | 100 to 500 nM | – | CC(C)[C@@H](CC(=O)O)N(C)c1nc(-c2cc(-c3ccon3)n(Cc3ccccc3F)n2)ncc1F [Compound I-202]
40 to 60% | 100 to 500 nM | – | O=C(O)CN(CC1CC1)c1nc(-c2cc(-c3ccon3)n(Cc3ccccc3F)n2)ncc1F [Compound I-203]
60 to 80% | 500 to 1000 nM | – | CCOC(=O)CN(CC(C)C)c1nc(-c2cc(-c3ccon3)n(Cc3ccccc3F)n2)ncc1F [Compound I-205]
100 to 120% | 500 to 1000 nM | – | C[C@@H](C(=O)O)N(C)c1nc(-c2cc(-c3ccon3)n(Cc3ccccc3F)n2)ncc1F [Compound I-207]
80 to 100% | 1 to 100 nM | – | O=C(O)C12CCCC1CN(c1nc(-c3cc(-c4ccon4)n(Cc4ccccc4F)n3)ncc1F)C2 (stereo not shown) [Compound I-208]
80 to 100% | 500 to 1000 nM | – | CC(C)CN(CC(=O)O)c1nc(-c2cc(-c3ccon3)n(Cc3ccccc3F)n2)ncc1F [Compound I-209]
> 120% | 1000 to 5000 nM | – | OCC1CNCCN1c1nc(-c2cc(-c3ccon3)n(Cc3ccccc3F)n2)ncc1F (stereo not shown) [Compound I-211]
> 120% | 500 to 1000 nM | – | O=C(N1CCN(c2nc(-c3cc(-c4ccon4)n(Cc4ccccc4F)n3)ncc2F)C(CO)C1)C(F)(F)F (stereo not shown) [Compound I-212]
40 to 60% | 1000 to 5000 nM | – | CN(CCCC(=O)O)c1nc(-c2cc(-c3ccon3)n(Cc3ccccc3F)n2)ncc1F [Compound I-215]
40 to 60% | 100 to 500 nM | – | O=C(O)CN1CCCN1c1nc(-c2cc(-c3ccon3)n(Cc3ccccc3F)n2)ncc1F [Compound I-216]
60 to 80% | 100 to 500 nM | – | CCC(CC)(CNc1nc(-c2cc(-c3ccon3)n(Cc3ccccc3F)n2)ncc1F)C(=O)O [Compound I-217]
40 to 60% | 1000 to 5000 nM | – | CONC(=O)CN(C)c1nc(-c2cc(-c3ccon3)n(Cc3ccccc3F)n2)ncc1F [Compound I-218]
40 to 60% | 1000 to 5000 nM | – | Cc1noc(CN(C)c2nc(-c3cc(-c4ccon4)n(Cc4ccccc4F)n3)ncc2F)n1 [Compound I-223]
60 to 80% | 1000 to 5000 nM | – | C[C@H](C[C@H](Nc1nc(-c2cc(-c3ccon3)n(Cc3ccccc3F)n2)ncc1F)C(=O)O)C(F)(F)F [Compound I-224]
80 to 100% | 1 to 100 nM | – | C[C@H](C[C@@H](Nc1nc(-c2cc(-c3ccon3)n(Cc3ccccc3F)n2)ncc1F)C(=O)O)C(F)(F)F [Compound I-225]
60 to 80% | 1 to 100 nM | – | CC(C)(F)C(Nc1nc(-c2cc(-c3ccon3)n(Cc3ccccc3F)n2)ncc1F)C(=O)O (stereo not shown) [Compound I-226]
20 to 40% | 100 to 500 nM | – | O=C(O)[C@@H](Nc1nc(-c2cc(-c3ccon3)n(Cc3ccccc3F)n2)ncc1F)C1CC1 [Compound I-227]
0 to 10% | > 10000 nM | – | CN(CC1(C(=O)O)CCCC1)c1nc(-c2cc(-c3ccon3)n(Cc3ccccc3F)n2)ncc1F [Compound I-228]
20 to 40% | > 10000 nM | – | O=C(O)CC1CCCN(c2nc(-c3cc(-c4ccon4)n(Cc4ccccc4F)n3)ncc2F)C1 (stereo not shown) [Compound I-229]

Further lines, the compound ahead of its results:

Structure (SMILES) | Emax | EC50 [1] | EC50 (top of curve fitted to 100%, read-out: HEK assay EC50 - constrained)
CN(CCC(=O)O)c1nc(-c2cc(-c3ccon3)n(Cc3ccccc3F)n2)ncc1F [Compound I-169] | 60 to 80% | 100 to 500 nM | –
CC(CN(C)c1nc(-c2cc(-c3ccon3)n(Cc3ccccc3F)n2)ncc1F)C(=O)O (stereo not shown) [Compound I-170] | 60 to 80% | 100 to 500 nM | –
CC(C)[C@H](CNc1nc(-c2cc(-c3ccon3)n(Cc3ccccc3F)n2)ncc1F)C(=O)O [Compound I-171] | 60 to 80% | 1 to 100 nM | –
COc1nc(-c2cc(-c3ccon3)n(Cc3ccccc3F)n2)nc(N2CCOCC2)c1F [Compound I-172] | – | – | > 10000 nM
CC(C)[C@@H](CNc1nc(-c2cc(-c3ccon3)n(Cc3ccccc3F)n2)ncc1F)C(=O)O [Compound I-173] | 60 to 80% | 100 to 500 nM | –
O=C(O)CCNc1nc(-c2cc(-c3ccon3)n(Cc3ccccc3F)n2)ncc1F [Compound I-174] | 60 to 80% | 500 to 1000 nM | –
CS(=O)(=O)C1CCN(c2nc(-c3cc(-c4ccon4)n(Cc4ccccc4F)n3)ncc2F)CC1 [Compound I-175] | 100 to 120% | 1 to 100 nM | –
CN(CC(=O)O)c1nc(-c2cc(-c3ccon3)n(Cc3ccccc3F)n2)ncc1F [Compound I-176] | 40 to 60% | 1000 to 5000 nM | –
CC(=O)NS(=O)(=O)N1CCN(c2nc(-c3cc(-c4ccon4)n(Cc4ccccc4F)n3)ncc2F)CC1 [Compound I-177] | 60 to 80% | 100 to 500 nM | –
CS(=O)(=O)CCC(Nc1nc(-c2cc(-c3ccon3)n(Cc3ccccc3F)n2)ncc1F)C(=O)O (stereo not shown) [Compound I-178] | 40 to 60% | 5000 to 10000 nM | –
O=C(O)[C@H]1CC[C@@H](Nc2nc(-c3cc(-c4ccon4)n(Cc4ccccc4F)n3)ncc2F)C1 [Compound I-179] | 80 to 100% | 100 to 500 nM | –
O=C(O)C(CC(F)(F)F)Nc1nc(-c2cc(-c3ccon3)n(Cc3ccccc3F)n2)ncc1F (stereo not shown) [Compound I-180] | 80 to 100% | 1000 to 5000 nM | –
CC(C)[C@@H](CC(=O)O)Nc1nc(-c2cc(-c3ccon3)n(Cc3ccccc3F)n2)ncc1F [Compound I-181] | 100 to 120% | 500 to 1000 nM | –
CC(C)[C@H](CC(=O)O)Nc1nc(-c2cc(-c3ccon3)n(Cc3ccccc3F)n2)ncc1F [Compound I-182] | 80 to 100% | 1 to 100 nM | –
CC(C)(C)OC(=O)N1CCCN1c1nc(-c2cc(-c3ccon3)n(Cc3ccccc3F)n2)ncc1F [Compound I-183] | 60 to 80% | 100 to 500 nM | –
CC(C)(C)OC(=O)N1CCN(c2nc(-c3cc(-c4ccon4)n(Cc4ccccc4F)n3)ncc2F)C(CO)C1 (stereo not shown) [Compound I-184] | 80 to 100% | 500 to 1000 nM | –
CCC1(C(=O)O)CCN(c2nc(-c3cc(-c4ccon4)n(Cc4ccccc4F)n3)ncc2F)CC1 [Compound I-189] | 60 to 80% | 100 to 500 nM | –
CC1CN(c2nc(-c3cc(-c4ccon4)n(Cc4ccccc4F)n3)ncc2F)CCC1C(=O)O (stereo not shown) [Compound I-190] | 60 to 80% | 1000 to 5000 nM | –
Fc1ccccc1Cn1nc(-c2ncc(F)c(N3CCCN3)n2)cc1-c1ccon1 [Compound I-193] | 60 to 80% | 1000 to 5000 nM | –
O=C(O)C1(CNc2nc(-c3cc(-c4ccon4)n(Cc4ccccc4F)n3)ncc2F)CCOCC1 [Compound I-194] | 80 to 100% | 100 to 500 nM | –
CC(C)C(CC(=O)O)N(C)c1nc(-c2cc(-c3ccon3)n(Cc3ccccc3F)n2)ncc1F (stereo not shown) [Compound I-195] | 60 to 80% | 1 to 100 nM | –
CNc1nc(-c2cc(-c3ccon3)n(Cc3ccccc3F)n2)ncc1F [Compound I-196] | 80 to 100% | – | –
O=C(O)C1(CNc2nc(-c3cc(-c4ccon4)n(Cc4ccccc4F)n3)ncc2F)CC1 [Compound I-210] | 100 to 120% | 1 to 100 nM | –
